Assay results taken from BindingDB's records for PubMed 2156995 (Rhone-Poulenc Sante, 1990).
Values joined by “and” are separate entries in the source; they are usually repeats but may differ in a detail not shown here. Equal entries are not always repeated.

Biological target: Platelet-activating factor receptor (Homo sapiens, UniProt P25105)
Sequence (P25105 whole entry): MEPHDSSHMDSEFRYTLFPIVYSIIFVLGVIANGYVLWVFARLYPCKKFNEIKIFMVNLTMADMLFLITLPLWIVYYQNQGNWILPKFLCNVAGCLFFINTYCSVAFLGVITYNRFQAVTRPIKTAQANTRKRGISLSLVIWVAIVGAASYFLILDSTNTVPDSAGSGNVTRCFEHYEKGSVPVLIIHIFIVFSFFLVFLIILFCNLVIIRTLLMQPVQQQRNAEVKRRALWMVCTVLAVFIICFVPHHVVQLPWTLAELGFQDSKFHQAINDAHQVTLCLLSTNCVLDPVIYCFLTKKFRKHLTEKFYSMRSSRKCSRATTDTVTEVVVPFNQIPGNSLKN

With `Cc1nnc2n1-c1sc(Br)cc1C(c1ccccc1Cl)=NC2` [2-Bromo-4-(2-chloro-phenyl)-9-methyl-6H-1-thia-5,7,8,9a-tetraaza-cyclopenta[e]azulene] the Ki was 80.5 nM and 17.4 nM.

For `C[C@@H]1C(=O)O[C@H]2[C@H](O)C34[C@H]5C[C@@H](C(C)(C)C)C36C(O)C(=O)O[C@H]6O[C@@]4(C(=O)O5)[C@@]12O` (some centres undefined) [BN 52021], the Ki was 964 nM and 643 nM.

`CCCCCCCCCCCCCCCCCCNC(=O)OCC(COCCCC[n+]1ccsc1)OC(=O)OC` (centres undefined) [CAS_129364] was tested, and the Ki was 38.6 nM and 16.9 nM.

For `CCCCCCCCCCCCCCCCCCNC(=O)OCC1CCC(COP(=O)([O-])OCC[n+]2cccc3ccccc32)O1` (centres undefined) [NSC_108044], the Ki was 129 nM and 130 nM.
